Drawing on PubChem BioAssay AID1259407 (Chemical Carcinogenesis Research Information System (CCRIS), 2018), this text covers mutagenic call for 2 molecules.

For the data set, the system named is CCRIS mutagenicity, Ames/micronucleus/aberration tests. The data set can be described thus: CCRIS mutagenicity studies.
Setting [1] is: Test System: AMES SALMONELLA TYPHIMURIUM, Strain/Indicator: TA100, Metabolic Activation: NONE, Method: STANDARD PLATE.
[2] abbreviates: Test System: AMES SALMONELLA TYPHIMURIUM, Strain/Indicator: TA1535, Metabolic Activation: NONE, Method: STANDARD PLATE.

Activity calls are given as the source filed them. The rule behind the calls is not given here.

On to `Nc1ccccc1[N+](=O)[O-]`, for which the mutagenic call was “active; positive (structural changes)” (End Point: IN VITRO CHROMOSOMAL ABERRATIONS, Test System: CHL CELLS, Metabolic Activation: RAT, LIVER, S-9, SODIUM PHENOBARBITAL AND 5,6-BENZOFLAVONE); “inactive; negative” (End Point: IN VITRO MICRONUCLEUS, Test System: CHL/IU CELLS, Metabolic Activation: NONE); “inactive; negative” (Test System: AMES SALMONELLA TYPHIMURIUM, Strain/Indicator: TA97, Metabolic Activation: NONE); “inactive; negative” (Test System: AMES SALMONELLA TYPHIMURIUM, Strain/Indicator: TA97, Metabolic Activation: RAT, LIVER, S-9, AROCLOR 1254); “active; positive” (Test System: AMES SALMONELLA TYPHIMURIUM, Strain/Indicator: TA98, Metabolic Activation: HAMSTER, LIVER, S-9, AROCLOR 1254, FLAVIN MONONUCLEOTIDE, Method: PREINCUBATION); “inactive; negative” (Test System: AMES SALMONELLA TYPHIMURIUM, Strain/Indicator: TA98, Metabolic Activation: HAMSTER, LIVER, S-9, AROCLOR 1254, Method: PREINCUBATION). Besides, the mutagenic call is “inactive; negative” (Test System: AMES SALMONELLA TYPHIMURIUM, Strain/Indicator: TA98, Metabolic Activation: NONE); “inactive; negative” (Test System: AMES SALMONELLA TYPHIMURIUM, Strain/Indicator: TA98, Metabolic Activation: NONE, Method: PREINCUBATION); “inactive; negative” (Test System: AMES SALMONELLA TYPHIMURIUM, Strain/Indicator: TA98, Metabolic Activation: NONE, Method: STANDARD PLATE); “inactive; negative” (Test System: AMES SALMONELLA TYPHIMURIUM, Strain/Indicator: TA98, Metabolic Activation: RAT, LIVER, S-9, AROCLOR 1254); “inactive; negative” (Test System: AMES SALMONELLA TYPHIMURIUM, Strain/Indicator: TA98, Metabolic Activation: RAT, LIVER, S-9, AROCLOR 1254, FLAVIN MONONUCLEOTIDE, Method: PREINCUBATION); “inactive; negative” (Test System: AMES SALMONELLA TYPHIMURIUM, Strain/Indicator: TA98, Metabolic Activation: RAT, LIVER, S-9, AROCLOR 1254, Method: STANDARD PLATE). For the same molecule, the mutagenic call (Test System: AMES SALMONELLA TYPHIMURIUM, Strain/Indicator: TA98, Metabolic Activation: RAT, LIVER, S-9, KANECHLOR 500, Method: PREINCUBATION) is “inactive; negative”; the mutagenic call (Test System: AMES SALMONELLA TYPHIMURIUM, Strain/Indicator: TA98, Method: PREINCUBATION) is “inactive; negative”; the mutagenic call (Test System: AMES SALMONELLA TYPHIMURIUM, Strain/Indicator: TA100, Metabolic Activation: NONE) is “inactive; negative”; the mutagenic call (Test System: AMES SALMONELLA TYPHIMURIUM, Strain/Indicator: TA100, Metabolic Activation: NONE, Method: PREINCUBATION) was “inactive; negative”; the mutagenic call under setting [1] was “inactive; negative”; the mutagenic call (Test System: AMES SALMONELLA TYPHIMURIUM, Strain/Indicator: TA100, Metabolic Activation: RAT, LIVER, S-9, AROCLOR 1254) is “inactive; negative”. Also, the mutagenic call is “inactive; negative” (Test System: AMES SALMONELLA TYPHIMURIUM, Strain/Indicator: TA100, Metabolic Activation: RAT, LIVER, S-9, AROCLOR 1254, Method: STANDARD PLATE); “inactive; negative” (Test System: AMES SALMONELLA TYPHIMURIUM, Strain/Indicator: TA100, Metabolic Activation: RAT, LIVER, S-9, KANECHLOR 500, Method: PREINCUBATION); “inactive; negative” (Test System: AMES SALMONELLA TYPHIMURIUM, Strain/Indicator: TA100, Method: PREINCUBATION); “inactive; negative” (Test System: AMES SALMONELLA TYPHIMURIUM, Strain/Indicator: TA102, Metabolic Activation: NONE); “inactive; negative” (Test System: AMES SALMONELLA TYPHIMURIUM, Strain/Indicator: TA102, Metabolic Activation: RAT, LIVER, S-9, AROCLOR 1254); “inactive; negative” (Test System: AMES SALMONELLA TYPHIMURIUM, Strain/Indicator: TA1535, Metabolic Activation: NONE, Method: PREINCUBATION). Besides, the mutagenic call reads like this: under setting [2], “inactive; negative”; (Test System: AMES SALMONELLA TYPHIMURIUM, Strain/Indicator: TA1535, Metabolic Activation: RAT, LIVER, S-9, AROCLOR 1254, Method: STANDARD PLATE) “inactive; negative”; (Test System: AMES SALMONELLA TYPHIMURIUM, Strain/Indicator: TA1535, Method: PREINCUBATION) “inactive; negative”; (Test System: AMES SALMONELLA TYPHIMURIUM, Strain/Indicator: TA1537, Metabolic Activation: NONE, Method: PREINCUBATION) “inactive; negative”; (Test System: AMES SALMONELLA TYPHIMURIUM, Strain/Indicator: TA1537, Metabolic Activation: NONE, Method: STANDARD PLATE) “inactive; negative”; (Test System: AMES SALMONELLA TYPHIMURIUM, Strain/Indicator: TA1537, Metabolic Activation: RAT, LIVER, S-9, AROCLOR 1254, Method: STANDARD PLATE) “inactive; negative”. For the same molecule, the mutagenic call was “inactive; negative” (Test System: AMES SALMONELLA TYPHIMURIUM, Strain/Indicator: TA1537, Method: PREINCUBATION); “inactive; negative” (Test System: AMES SALMONELLA TYPHIMURIUM, Strain/Indicator: TA1538, Metabolic Activation: NONE, Method: PREINCUBATION); “inactive; negative” (Test System: AMES SALMONELLA TYPHIMURIUM, Strain/Indicator: TA1538, Metabolic Activation: NONE, Method: STANDARD PLATE); “inactive; negative” (Test System: AMES SALMONELLA TYPHIMURIUM, Strain/Indicator: TA1538, Metabolic Activation: RAT, LIVER, S-9, AROCLOR 1254, Method: STANDARD PLATE); “inactive; negative” (Test System: AMES SALMONELLA TYPHIMURIUM, Strain/Indicator: TA1538, Method: PREINCUBATION); “inactive; negative” (Test System: UDS RODENT HEPATOCYTES, Strain/Indicator: THY INCORP (NON-S-PHASE), Metabolic Activation: NONE, Method: AUTORADIOGRAPHY).
On to `c1ccc(-c2ccccc2OCC2CO2)cc1` (stereo not drawn), for which the mutagenic call is “active; positive” under setting [1] and “active; positive” under setting [2].
